Read-outs that look alike come from different tables or passages of the source. Ends that are not written are not given here.
Tests used:
[1] = system: mouse B16-BL6 melanoma cells; experiment: Adhesion of B16-BL6 melanoma cells to substrate coated with polypeptide or fibronectin; type: cell-based; conditions: 37° C., 20 minutes; for Adhesiveness adhered cell No./substrate (SD): wells coated with 20 μg/ml polypeptide, 5 μg/ml fibronectin or 1% BSA, 2×10^4 cells
Text: The adhesiveness to target cells of the compound of the present invention was examined in accordance with a method reported by Saiki et al. […] Namely, a polypeptide of the present invention having a structure of ([…] and a molecular weight of approximately 5,000 prepared in the following Synthetic Example 1 and a comparative polypeptide, ([…], carrying a random sequence of the corresponding amino acids Arg, Gly and Asp and having a molecular weight of approximately 5,000 prepared in the following Synthetic Example 3 were employed. The adhesiveness of each compound was examined by using mouse B16-Bl6 melanoma cells as the target. First, microculture wells were preliminarily coated with 20 μg/ml of the polypeptide to be examined or 5 μg/ml of mouse fibronectin (obtained from Seikagaku Kogyo, Japan) which was used as a positive control. Next 0.05 ml/well of B16-BL6 melamona cells (2×10^4) labeled with a radioactive iodide [^125 I]IUdR was added thereto and the cells were cultured at 37° C. for 20 minutes. […] Subsequently the cells were collected and suspended in a serum-free MEM medium. The cell suspension thus obtained was used in the above examination. The unadsorbed cells in the well were washed away with PBS 4 times. Then the cells adsorbed by the well were dissolved in 0.1 ml of 0.1N NaOH. The number of adsorbed cells was determined by measuring the radioactivity of the dissolved cells.

[2] = system: adhesion of B16-BL6 melanoma cells to fibronectin; experiment: Inhibition of B16-BL6 cell adhesion to fibronectin-coated substrate by peptides present during culture; type: cell-based, mouse; conditions: for Adhesiveness adhered cell No./substrate (SD) / Percentage in parentheses (inhibition of adhesion to fibronectin): fibronectin coating
Procedure: First, microculture wells were preliminarily coated with 20 μg/ml of the polypeptide to be examined or 5 μg/ml of mouse fibronectin (obtained from Seikagaku Kogyo, Japan) which was used as a positive control. Next 0.05 ml/well of B16-BL6 melamona cells (2×10^4) labeled with a radioactive iodide [^125 I]IUdR was added thereto and the cells were cultured at 37° C. for 20 minutes. The number of cells thus adsorbed by the culture wells was determined by measuring the radioactivity. 1% bovine serum albumin (BSA) was employed as a negative control. The B16-BL6 melanoma cells were labeled by culturing the cells to be labeled at the logarithmic growth phase for 24 hours in an MEM medium containing 5% of FBS and 0.3 μCi/ml of [^125 I]IUdR (200 mCi/mmol; obtained from New England Nuclear, Boston, Mass., USA).
The labeled cells were washed with physiological saline solution twice and suspended in 0.02% EDTA for 1 minute. Subsequently the cells were collected and suspended in a serum-free MEM medium. The cell suspension thus obtained was used in the above examination. The unadsorbed cells in the well were washed away with PBS 4 times. Then the cells adsorbed by the well were dissolved in 0.1 ml of 0.1N NaOH. The number of adsorbed cells was determined by measuring the radioactivity of the dissolved cells.

B16-BL6 melanoma cells [3] = experiment: Experimental metastasis to lung induced by intravenously injecting B16-BL6 melanoma cells; type: in vivo, C57BL/6 mice; conditions: for Antimetastatic effect on metastasis to lungs (in words): 500 μg mixed with cells, i.v.; for Antimetastatic effect compared with the control group (in words): 1,000 μg mixed with cells; for No. of instances of metastasis to lung mean ± SD: B16-BL6
[4] = system: Lewis lung cancer cells (3 LL); experiment: Experimental metastasis to lung induced by injecting Lewis lung cancer cells (3LL); type: in vivo, C57BL/6 mice; conditions: for No. of instances of metastasis to lung mean ± SD: 3LL
Procedure: Namely, portions of 2, 20 and 100 μg of the above compound were each mixed with 3×10^4 Lewis lung cancer cells (3 LL) and administered to a group of C57BL/6 mice in the same manner as the one described in the above (b). Thus the antimetastatic effect of this compound was examined.

B16-BL6 melanoma cells [5] = conditions: for Metastasis of the cancer to the lungs (in words): 100 μg on 1st or 7th day single dose or 50 μg on 7th, 10th, 13th, 16th days, random polypeptide 100 μg on 7th day
Text: Furthermore, the antimetastatic effect of the compound of the present invention on a spontaneous metastasis model was examined. Namely, B16-BL6 cells were transplanted into the foot pads of C57BL/mice (each group having five animals). […] The transplanted cancer was removed on the 21st day and the mouse was anatomized 2 weeks later to examine the metastasis of the cancer into the lungs.

[6] = system: platelet aggregation induced by B16-BL6 melanoma cells; conditions: 100 μg/ml added to heparinized PRP 7 minutes before the cells; FIGS. 2 and 3
Procedure: The blood of a C57BL/6 mouse was centrifuged at 160×g for 15 minutes to give platelet rich plasma (PRP). As a control, platelet poor plasma (PPP) obtained by centrifuging the blood at 1,000×g for 10 minutes was employed. […] After preincubation for 5 to 7 minutes, the mixture was added to a suspension of B16-BL6 cells in physiological saline (approximately 10^6 /ml) and stirred at 37° C. at 1,000 rpm. During this period, the aggregation of the platelets was monitored with a dual aggregometer (Model 440; Chrono-Log, USA). […] FIGS. 1 to 3 together show the results.

[7] = system: adhesion of B16-BL6 melanoma cells to fibronectin; experiment: Inhibition of B16-BL6 cell adhesion to fibronectin-coated substrate by peptides present during culture; type: cell-based, mouse
B16-BL6 melanoma cells [8] = experiment: Distribution and retention of [125I]IUdR-labeled B16-BL6 melanoma cells in organs
Procedure: B16-BL6 cells at the logarithmic growth phase were labeled with [^125 I]IUdR. […] The liver, kidneys, spleen and lungs of each animal were removed 30 minutes or 24 hours after the administration and the radioactivity in these organs was determined. Mice which received PBS were used as control animals.

[9] = system: erythrocytes, spleen and thymus cells
[10] = incubated with 100 μg/ml peptide
[11] = incubated with 500 μg/ml peptide
[12] = Test 1, simultaneous (mixed with 5×10^4 cells, i.v.), 500 μg, colonies counted after 14 days
[13] = 100 μg/animal, administration date 7
[14] = 100 μg/animal, administration date 14
[15] = 100 μg/animal, administration date 20
[16] = 50 × 4 μg/animal, administration dates 7, 10, 13, 16
[17] = 500 μg/mouse with labeled cells i.v.

Molecule: Poly(L-arginylglycyl-L-aspartate hydrochloride) [Poly(Arg-Gly-Asp)]
- Adsorption of B16-BL6 melanoma cells to coated wells (in words) [1]: accelerated the adsorption
- Adhesiveness adhered cell No./substrate (SD) [1]: 7967 ± 910 adhered cell No./substrate
- Adhesiveness adhered cell No./substrate (SD) [2, 10]: 3687 ± 229 adhered cell No./substrate
- Adhesiveness adhered cell No./substrate (SD) [2, 11]: 3715 ± 231 adhered cell No./substrate
- Percentage in parentheses (inhibition of adhesion to fibronectin) [2, 11]: 36%
- Antimetastatic effect on metastasis to lungs (in words) (B16-BL6 melanoma cells [3]; Test 1): remarkably inhibited
- Metastasis to lung mean ± SD (B16-BL6 melanoma cells [3]; [12]): 23 ± 3
- Antimetastatic effect compared with the control group (in words) (B16-BL6 melanoma cells [3]; Test 2): remarkable antimetastatic effect
- Metastasis to lung mean ± SD (B16-BL6 melanoma cells [3]; Test 2, separate (i.v. 5 minutes after the cells), 1000 μg): 16 ± 4
- Metastasis to lung mean ± SD (B16-BL6 melanoma cells [3]; Test 2, simultaneous, 1000 μg): 6 ± 4
- Antimetastatic effect (in words) (B16-BL6 melanoma cells [3]; not mixed, i.v. to mice given B16-BL6 cells 5 minutes before): high antimetastatic effect
- No. of instances of metastasis to lung mean ± SD ([4]; 500 μg/animal): 34 ± 7
- Metastasis of the cancer to the lungs (in words) (B16-BL6 melanoma cells [5]): remarkably reduced
- Number of metastatic cancer to lung (mm ± SD) (B16-BL6 melanoma cells [5]; 100 μg/animal, administration date 1): 24 ± 17 mm
- Size of transplanted cancer (mm ± SD), observation on 21st day (B16-BL6 melanoma cells [5]; 100 μg/animal, administration date 1, topical): 8 ± 4 mm
- Number of metastatic cancer to lung (mm ± SD) (B16-BL6 melanoma cells [5]; [13]): 29 ± 22 mm
- Size of transplanted cancer (mm ± SD), observation on 21st day (B16-BL6 melanoma cells [5]; [13]): 9 ± 3 mm
- Number of metastatic cancer to lung (mm ± SD) (B16-BL6 melanoma cells [5]; [14]): 120 ± 29 mm
- Size of transplanted cancer (mm ± SD), observation on 21st day (B16-BL6 melanoma cells [5]; [14]): 10 ± 4 mm
- Number of metastatic cancer to lung (mm ± SD) (B16-BL6 melanoma cells [5]; [15]): 131 ± 79 mm
- Size of transplanted cancer (mm ± SD), observation on 21st day (B16-BL6 melanoma cells [5]; [15]): 8 ± 3 mm
- Number of metastatic cancer to lung (mm ± SD) (B16-BL6 melanoma cells [5]; [16]): 26 ± 29 mm
- Size of transplanted cancer (mm ± SD), observation on 21st day (B16-BL6 melanoma cells [5]; [16]): 8 ± 3 mm
- Growth of the transplanted cancer per se (in words) (B16-BL6 melanoma cells [5]; same regimens): could not be suppressed
- Suppression of platelet aggregation induced by B16-BL6 cells (in words) [6]: completely suppressed
- Inhibition of adhesion of fibronectin to cells (in words) ([7]; 100 or 500 μg/ml peptide (His-Gly-Gly 500 μg/ml)): inhibited
- Percentage in parentheses (inhibition of adhesion to fibronectin) ([7]; fibronectin coating, incubated with 100 μg/ml peptide): 37%
- Radioactivity in other organs including blood versus control (in words) (B16-BL6 melanoma cells [8]; 500 μg/mouse): no significant difference
- Radioactivity of the lungs versus control group (in words) (B16-BL6 melanoma cells [8]; 500 μg/mouse): markedly lower
- Radioactivity (cpm ± SD), Lung (B16-BL6 melanoma cells [8]; 500 μg/mouse with 2×10^4 labeled cells i.v., average of 3 animals): 1121 ± 281 cpm
- Radioactivity (cpm ± SD), Blood (1 ml) (B16-BL6 melanoma cells [8]; [17]): 304 ± 94 cpm
- Radioactivity (cpm ± SD), Kidney (B16-BL6 melanoma cells [8]; [17]): 73 ± 19 cpm
- Radioactivity (cpm ± SD), Liver (B16-BL6 melanoma cells [8]; [17]): 195 ± 42 cpm
- Radioactivity (cpm ± SD), Spleen (B16-BL6 melanoma cells [8]; [17]): 59 ± 7 cpm
- Percentage relative to the administered radioactivity, Lung (B16-BL6 melanoma cells [8]; administered 15308 ± 1605 cpm/2 × 10^4 cells): 7.3%
- Percentage relative to the administered radioactivity, Blood (1 ml) (B16-BL6 melanoma cells [8]; mouse, in vivo): 2.0%
- Percentage relative to the administered radioactivity, Kidney (B16-BL6 melanoma cells [8]; mouse, in vivo): 0.5%
- Percentage relative to the administered radioactivity, Liver (B16-BL6 melanoma cells [8]; mouse, in vivo): 1.3%
- Percentage relative to the administered radioactivity, Spleen (B16-BL6 melanoma cells [8]; mouse, in vivo): 0.4%

Molecule: Copoly(L-arginine hydrochloride, glycine, L-aspartic acid) [Poly(Arg, Gly, Asp), reference compound]
- Adsorption of B16-BL6 melanoma cells to coated wells (in words) [1]: scarcely any adsorption
- Adhesiveness adhered cell No./substrate (SD) [1]: 1750 ± 395 adhered cell No./substrate
- Antimetastatic effect on metastasis to lungs (in words) (B16-BL6 melanoma cells [3]; Test 1): no such antimetastatic effect
- Metastasis to lung mean ± SD (B16-BL6 melanoma cells [3]; [12]): 65 ± 4
- Metastasis of the cancer to the lungs (in words) (B16-BL6 melanoma cells [5]): did not suppress
- Number of metastatic cancer to lung (mm ± SD) (B16-BL6 melanoma cells [5]; [13]): 158 ± 62 mm
- Size of transplanted cancer (mm ± SD), observation on 21st day (B16-BL6 melanoma cells [5]; [13]): 11 ± 3 mm
- Suppression of platelet aggregation induced by B16-BL6 cells (in words) [6]: scarcely any suppression capability

Molecule: Fibronectin: mouse fibronectin (obtained from Seikagaku Kogyo, Japan) used as a positive control
- Adsorption of B16-BL6 melanoma cells to coated wells (in words) [1]: accelerated the adsorption
- Adhesiveness adhered cell No./substrate (SD) [1]: 5849 ± 513 adhered cell No./substrate

Molecule: O=C(O)CN(CCN(CC(=O)O)CC(=O)O)CC(=O)O [EDTA, reference compound]
- Inhibition of cell-adhesiveness of fibronectin (in words) ([7]; 5 mM): inhibited

Molecule: Poly(Tyr-Ile-Gly-Ser-Arg)HCl (YIGSR; not fully specified; printed as Poly(Tyr-Ile-Gly-Ser-Arg)HCl; also: HCl salt)
- No. of instances of metastasis to lung mean ± SD (B16-BL6 melanoma cells [3]; 5 μg/animal): 81 ± 9
- No. of instances of metastasis to lung mean ± SD (B16-BL6 melanoma cells [3]; 20 μg/animal): 43 ± 13
- No. of instances of metastasis to lung mean ± SD (B16-BL6 melanoma cells [3]; 100 μg/animal): 19 ± 9
- No. of instances of metastasis to lung mean ± SD ([4]; 100 μg/animal): 14 ± 11
- Antimetastatic activity relative to the original pentapeptide ([4]; mouse, in vivo): ~10 times
- Antimetastatic effect on metastasis to the lungs (in words) ([4]; polypeptide 2, 20 and 100 μg, pentapeptide 100 μg, mixed with cancer cells): remarkably inhibited
- Cytotoxicity on erythrocytes, spleen and thymus cells [9]: neither any cytotoxicity

Molecule: Cl.N=C(N)NCCC[C@H](N)C(=O)NCC(=O)N[C@@H](CC(=O)O)C(=O)O [Arg-Gly-Asp, L-arginylglycylaspartate hydrochloride, reference compound]
- Inhibition of adhesion of fibronectin to cells (in words) ([2]; 100 or 500 μg/ml peptide (His-Gly-Gly 500 μg/ml), hydrochloride): dose-dependently inhibited
- Adhesiveness adhered cell No./substrate (SD) [2, 10]: 5320 ± 52 adhered cell No./substrate
- Adhesiveness adhered cell No./substrate (SD) [2, 11]: 3708 ± 265 adhered cell No./substrate
- Percentage in parentheses (inhibition of adhesion to fibronectin) [2, 11]: 37%
- Amount needed relative to that of the polypeptide compound of the invention (B16-BL6 melanoma cells [3]; Test 1): approximately 6 times
- Antimetastatic effect on metastasis to lungs (in words) (B16-BL6 melanoma cells [3]; Test 1): no such antimetastatic effect
- Metastasis to lung mean ± SD (B16-BL6 melanoma cells [3]; [12]): 46 ± 14
- Metastasis to lung mean ± SD (B16-BL6 melanoma cells [3]; Test 1, simultaneous, 3000 μg, 14 days): 18 ± 24
- Amount needed to achieve an antimetastatic effect comparable to that of Poly(Arg-Gly-Asp) (B16-BL6 melanoma cells [3]; Test 1, versus 500 μg Poly(Arg-Gly-Asp)): 3,000 μg

Molecule: Poly(L-arginyl-glycyl-L-aspartic acid)hydrochloride [Poly(Arg-Gly-Asp)-1500]
- Antimetastatic effect compared with the control group (in words) (B16-BL6 melanoma cells [3]; Test 2): remarkable antimetastatic effect
- Metastasis to lung mean ± SD (B16-BL6 melanoma cells [3]; Test 2, simultaneous, 1000 μg): 14 ± 4

Source: patent US5236903A, “Polypeptide comprising repeated cell-adhesive core sequences” (Azuma; Ichiro, priority 1988, dated 1993)
